# Data reported in patent publication US20230226227A1, “PROSTATE SPECIFIC MEMBRANE ANTIGEN (PSMA) LIGANDS AND USES THEREOF” (ADVANCED ACCELERATOR APPLICATIONS (ITALY) SRL, priority 2019, published 2023).
# Tests used:
# [1] = In vivo distribution in healthy CD-1 mice; set-up: species or system CD-1 healthy mice
# Description: In vivo distribution studies were performed in CD-1 healthy mice using Ga-labelled PSMA-R2, which was administered intravenously at a dose of 120-150 µCi (4.44 - 5.55 MBq). At specific time points after intravenous injection, animals (3 or 4/group) were sacrificed, organs collected, weighted and evaluated in a gamma counter.
# [2] = tested on: PC-3 PSMA positive and PSMA negative tumor xenografts; assay: In vivo distribution in tumor models (PSMA positive PIP and negative Flu xenografts); set-up: species or system athymic nude male mice; conditions: for Salivary glands uptake: 0.5 h post injection; for Kidney uptake / Tumor uptake / Tumor-to-kidney ratio: 1 h post injection
# Description: Athymic nude male mice bearing the PC-3 PSMA positive and PSMA negative tumor xenografts were injected with approximately 4.5 MBq of ^68Ga-PSMA-R2, and subsequently assessed for biodistribution and imaging studies. At 4 time points (30 min, 1 h, 2 h and 4 h) post injection (p.i.), tumor and organ uptake was determined using a gamma-counter. To assess receptor-specificity additional groups of animals were coinjected with an excess of unlabeled PSMA-R2 (40 nmol).
# The same study was performed with ^68Ga-PSMA-cpd 2, a comparative compound of the following formula: […]
# [3] = tested on: PC3-PIP (PSMA positive) tumor; assay: In vivo efficacy in PC3-PIP PSMA positive model; set-up: species or system mice; conditions: single injection of 111 MBq; p<0.001
# Description: An efficacy study was conducted in a prostate cancer model using Lu-labelled PSMA-R2).
# Mice bearing PC3-PIP (PSMA positive) tumor were injected once with 111 MBq of ^177Lu-PSMA-R2, ^177Lu-PSMA-617, included as reference compound, or with saline (control).
# Tumor volume is expressed either as an absolute value (mm^3) or relatively to the volume measured at the time of the first injection.
# [4] = In vitro stability in plasma (human); assay type: in vitro ADME; conditions: 37° C., after 2 hours
# Description: Stability of PSMA-R2 ligand was assessed in vitro after incubation with plasma from four different species (mouse, rat, mini-pig and human). PSMA-R2 was incubated at 37° C. in the different matrices, at a final concentration of 10 µg/mL, for 30, 60 and 120 minutes. The samples were analyzed by LC-MS/MS method.
# [5] = Plasma protein binding by ultrafiltration, human plasma; assay type: in vitro ADME; conditions: human plasma
# Description: (§1) Plasma protein binding of PSMA-R2 and ^175Lu-PSMA-R2 has been determined by ultrafiltration method, after incubation of the compounds in human, mouse, rat and minipig plasma at two different concentrations: 1 and 5 µg/mL.
# [6] = Plasma protein binding by ultrafiltration, mouse plasma; assay type: in vitro ADME
# Description: as §1
# [7] = Plasma protein binding by ultrafiltration, rat plasma; assay type: in vitro ADME; conditions: read-out: fu (%) fraction unbound
# Description: as §1
# [8] = Plasma protein binding by ultrafiltration, minipig plasma; assay type: in vitro ADME; conditions: read-out: fu (%) fraction unbound
# Description: as §1
# [9] = 1 µg/mL, read-out: fu (%) fraction unbound
# [10] = 5 µg/mL, read-out: fu (%) fraction unbound
# [11] = 1 and 5 µg/mL, read-out: Unbound fraction, range over labelled and unlabelled form
structure (smiles),measurement,setting,value
O=C(O)CCC(NC(=O)NC(CCCCN(Cc1ccc(Br)cc1)C(=O)CCCCCNC(=O)CN1CCN(CC(=O)O)CCN(CC(=O)O)CCN(CC(=O)O)CC1)C(=O)O)C(=O)O.[68Ga] (stereo not shown) [^68Ga-PSMA-R2],Liver uptake,[1]; 30 minutes after intravenous injection,0.74%
same,Liver uptake,[1]; 4 hours after intravenous injection,0.21%
same,"Radiotracer uptake in remaining organs (intestine, pancreas, muscle, bone)",[1]; all time-points,Low
same,"Radiotracer uptake in blood, adrenals, lungs, thyroid","[1]; earliest time-point (30 min), decreased rapidly later",slightly high
same,Excretion route (uptake in kidneys and bladder),[1]; intravenous,excreted through the renal system
same,Salivary glands uptake,[2],0.81% (0.5 h)
same,Kidney uptake,[2],6% (1 h)
same,Tumor uptake,[2],29% (1 h)
same,Tumor-to-kidney ratio,[2],5 (1 h)
O=C([O-])CN1CCN(CC(=O)[O-])CCN(CC(=O)NCCCCCC(=O)N(CCCC[C@H](NC(=O)N[C@@H](CCC(=O)O)C(=O)O)C(=O)O)Cc2ccc(Br)cc2)CCN(CC(=O)[O-])CC1.[177Lu+3] [^177Lu-PSMA-R2],Absolute tumor volume in comparison to control group,[3],significantly reduced
same,Relative tumor volume in comparison to control group,[3],significantly reduced
"O=C(O)CC[C@H](NC(=O)N[C@@H](CCCCN(Cc1ccc(Br)cc1)C(=O)CCCCNC(=O)CN1CCN(CC(=O)O)CCN(CC(=O)O)CCN(CC(=O)O)CC1)C(=O)O)C(=O)O.[68Ga] [^68Ga-PSMA-cpd2, reference compound]",Salivary glands uptake,[2],0.95% (0.5 h)
same,Kidney uptake,[2],13% (1 h)
same,Tumor uptake,[2],36% (1 h)
same,Tumor-to-kidney ratio,[2],3 (1 h)
O=C(O)CCC(NC(=O)NC(CCCCN(Cc1ccc(Br)cc1)C(=O)CCCCCNC(=O)CN1CCN(CC(=O)O)CCN(CC(=O)O)CCN(CC(=O)O)CC1)C(=O)O)C(=O)O (stereo not shown) [PSMA-R2],"recovery at 2 h, 10 µg/mL",[4],85%
same,fraction unbound at 1 µg/mL,[5]; [9],0.299 ± 0.046
same,fraction unbound at 5 µg/mL,[5]; [10],0.23 ± 0.005
same,fraction unbound,[5]; [11],0.25 to 0.45
same,fraction unbound at 1 µg/mL,[6]; [9],0.862 ± 0.111
same,fraction unbound at 5 µg/mL,[6]; [10],0.727 ± 0.015
same,fraction unbound,[6]; [11],0.7 to 0.86
same,fraction unbound at 1 µg/mL,[7]; 1 µg/mL,0.256 ± 0.018
same,fraction unbound at 5 µg/mL,[7]; 5 µg/mL,0.226 ± 0.011
same,fraction unbound at 1 µg/mL,[8]; 1 µg/mL,0.407 ± 0.043
same,fraction unbound at 5 µg/mL,[8]; 5 µg/mL,0.353 ± 0.085
"O=C([O-])CN1CCN(CC(=O)[O-])CCN(CC(=O)NCC2CCC(C(=O)N[C@@H](Cc3ccc4ccccc4c3)C(=O)NCCCC[C@H](NC(=O)N[C@@H](CCC(=O)O)C(=O)O)C(=O)O)CC2)CCN(CC(=O)[O-])CC1.[177Lu+3] (stereo partly shown) [^177Lu-PSMA-617, reference compound]",Absolute tumor volume in comparison to control group,[3],significantly reduced
same,Relative tumor volume in comparison to control group,[3],significantly reduced
